One experiment has as its system primary blood monocytes. Description: Multiplex phosphoprotein signaling in monocyte lysates, monocytes alone + LL-37. The experiment is classed as cell-based, human. To be noted: 1 µM LL-37, 2 h, mean MFI normalized to β-tubulin. The protocol:
Primary blood monocytes were isolated from PBMCs by plastic adhesion in the wells of a 24-well plate 24 h prior to the experiment. For that, 2 × 10^6 PBMC were seeded in each well in 2 mL of RPMI-1640 without supplements and kept for 1 h in a humidified CO2-incubator (5% CO2, 37 °C). Then, the adhered monocytes were thoroughly washed 3 times with the culture medium without supplements, and 600 µL of the complete RPMI-1640, supplemented with 10% Human AB serum, was added into each well. Then, 24 h later, the medium in the wells of a 24-well plate was replaced by a fresh medium with or without 1 µM of LL-37, and the permeable inserts with Caco-2 monolayers with TEER > 400 Ω × cm^2, containing 400 μL of the complete medium in their apical chamber, were immediately placed into the appropriate wells for 2 h. Then, 2 h later, the culture medium and the inserts were carefully removed, and the cells in each well were washed with PBS and lysed in 100 µL of MILLIPLEX MAP Lysis Buffer (cat. #43-040, Merck, Darmstadt, Germany), containing phosphatase inhibitors including 1 mM sodium orthovanadate (Na3VO4). To prevent protein degradation, a protease inhibitor cocktail (cat. #535140, Merck) was freshly added to the MILLIPLEX MAP Lysis Buffer. Cell lysate preparation was performed in accordance with the manufacturer’s instructions.
The phosphorylation of the following key cell signaling kinases and transcription factors was measured in cell lysates by using the MILLIPLEX multi-pathway magnetic bead 9-plex kit (#48-680MAG, Merck), containing phosphorylation state-specific antibodies: ERK/MAP kinase 1/2 (Thr185/Tyr187), Akt (Ser473), STAT3 (Ser727), JNK (Thr183/Tyr185), p70S6 kinase (Thr412), NF-κB (Ser536), STAT5A/B (Tyr694/699), CREB (Ser133), and p38 (Thr180/Tyr182). β-Tubulin MAPmate magnetic beads (#46-713MAG, Merck) were used as an assay normalization control to normalize the total protein level between the samples. A multiplex assay was carried out in accordance with the manufacturer’s instructions with overnight incubation of the samples with primary antibodies to phosphorylated signaling proteins on the MAGPIX system (Merck) using the xPONENT 4.2 software (Merck). The final analysis of the acquired fluorescence data was performed with the MILLIPLEX Analyst v5.1 software (Merck). Normalized MFI values were compared with an unpaired two-sample t-test using GraphPad Prism v.8.0.1 (GraphPad Software). The p-values ≤ 0.05 were considered significant.

A further experiment concerns human PBMCs. To be noted: LL-37 at 5 μg/mL; cited from earlier work. Here is the method:
In contrast to the chemotactic potential of LL-37, available data on its ability to induce cytokine production by different cells argue for the absence of its biological activity at low physiological concentrations of ∼5 μg/mL observed in non-inflamed tissues. […] In the current study, we used LL-37 at a concentration of 1 μM (4.5 μg/mL) to study whether this peptide had immunomodulatory activity under non-inflamed physiological conditions. In ou ...

For “LL-37: the only human cathelicidin, host defense antimicrobial peptide of 37 a.a. residues, produced by solid-phase peptide synthesis”, in the experiment on primary blood monocytes (control 0.03), the “phosphorylated STAT3” value turned out to be 0.04 MFI. Also, in the experiment with primary blood monocytes (control 96.21), the “phosphorylated NF-kB” value worked out at 54.12 MFI. In addition, the “phosphorylated STAT5” value with primary blood monocytes (control 134.68) was found to be 66.15 MFI. In addition, the “phosphorylated JNK” value in the experiment on primary blood monocytes (control 214.97) was determined as 140.9 MFI. Besides, the “phosphorylated p70S6K” value in the experiment on primary blood monocytes (control 279.26) was determined as 462.14 MFI. In the experiment with primary blood monocytes (control 3026), the “phosphorylated Akt” value is given as 2827 MFI. The “phosphorylated ERK 1/2” value with primary blood monocytes (control 5351) was 4054 MFI. For the same substance, in the experiment on primary blood monocytes (control 28314), the “phosphorylated p38” value is 24565 MFI. For the same substance, the “phosphorylated CREB” value with primary blood monocytes (control 151618) was 112466 MFI. Further, the “Production of TNFα or IL-10 in human PBMCs” value with human PBMCs is on record as “not able to increase the production of TNFα or IL-10”.
